Where “and” joins values, the source holds several entries; their conditions need not be identical. Identical values can stand only once.
Assays:
[1] = log p (partition coefficient); format: physicochemical
[2] = system: diabetic rats; assay: Blood glucose response after i.p. injection in STZ diabetic rats; format: in vivo, rat
Protocol: Initial experiments were carried out to determine pharmacological effectiveness of BMOV. Using male rats, made diabetic by the injection of streptoxoticin (STZ) at a dose of 60 mg/kg i.v., BMOV was initially given by intraperitoneal (i.p.) injection as a suspension in 1% methyl cellulose.
Two animals developed hypoglycemia.

[3] = system: SHR rats; assay: Blood pressure reduction by BMOV, spontaneously hypertensive rats; format: in vivo, rat; settings: SHRO, 0.75 mg/ml in drinking water
Protocol: 11 SHR and 12 WKY rats (all male) were procured at 4 weeks of age from Charles River, Canada. The animals were divided into four experimental groups: SHR (untreated n=5), SHRO (BMOV treated n=6), WKY (untreated n=8) and WKYO (BMOV treated n=4). Chronic BMOV treatment was commenced on the SHRO and WKYO groups at 5 weeks of age. The rats were given BMOV (0.75 mg/ml) ad libitum in the drinking water.
Once at week 5 and then starting at week 8, weekly measurements of blood pressure were done on all groups for the next 3 weeks. Blood samples were also collected via the tail vein during the weeks mentioned above. These were centrifuged and plasma was collected for subsequent glucose and insulin analyses. Chronic blood pressure measurements were done on conscious rats, using the tail cuff method without external preheating. Initial experiments to validate the tail cuff method by comparing the readings obtained with it to those obtained by direct arterial cannulation were conducted.

[4] = system: diabetic rats; assay: Comparative testing, plasma glucose after oral gavage in STZ diabetic rats; format: in vivo, male wistar rats; settings: oral gavage 1 mmol/kg
Protocol: Diabetes was induced in all animals by a single intravenous injection of streptozotocin (STZ) 60 mg/kg in 0.9% NaCl via the tail vein. Three days after STZ injection, blood was collected from the tail by nicking the tail tip and expressing the blood into heparinized capillary tubes. Blood was centrifuged at 20,000 g for 10 minutes to separate the plasma. Glucose analysis was done immediately on the plasma sample using a Boehringer Mannheim kit. […] One week after STZ injection animals were randomly divided into 3 pairs of rats. Each pair of rats received by oral gavage 1 mmol/kg of BMOV or VO(Sal)2 or VO(acac)2, suspended in 3% acacia.

[5] = Water solubility

With `Cc1occc(=O)c1[O-].Cc1occc(=O)c1[O-].[O]=[V+2]` [BMOV, Bis(maltolato)oxovanadium(IV)] the log p [1] was 0.12, the “animals that developed hypoglycemia” value ([2]; 15 mg/kg i.p.) was “Two animals” and the “rats responding with a decrease in blood glucose” value ([2]; 15 mg/kg i.p. (0.05 mmol/kg), suspension in 1% methyl cellulose) was “Nine out of the twelve”. The “development of high blood pressure, in words” value [3] was “prevent the development of high blood pressure”, the “decrease in systolic blood pressure” value ([3]; tail cuff) was 25-30 mmHg and the “blood glucose reducing effect vs compounds of Comparative Examples 15 and 16” value [4] was “superior”. For the same compound, the plasma glucose level ([4]; 0 h, individual rats (two per drug)) was 23.02 mM and 23.01 mM, the plasma glucose level ([4]; 2 h, individual rats) was 23.87 mM and 23.15 mM and the plasma glucose level ([4]; 4 h, individual rats) was 22.27 mM and 23.32 mM. For the same compound, the plasma glucose level ([4]; 6 h, individual rats) was 21.21 mM and 22.09 mM, the plasma glucose level ([4]; 8 h, individual rats) was 20.26 mM and 19.45 mM and the plasma glucose level ([4]; 12 h, individual rats) was 9.97 mM and 8.73 mM. The plasma glucose level ([4]; 24 h, individual rats) was 0.8 mM and 1.0 mM, the “water solubility, in words” value [5] was “quite water-soluble” and the water solubility ([5]; water) was “about 7 mM and ~2 mg/mL”.
